Consider 26 molecules from patent US20240101570A1 (AMGEN INC., priority 2020, published 2024).

In assay [1] the test system is HCT116 MTAP null cells. The assay is described as follows: HCT116 MTAP null cell proliferation / viability (CellTiter-Glo, 6 days). The settings on record: HCT116-MTAP null, 144 h, HCT116 MTAP null cells, 6 days, CellTiter-Glo; read-out: HCT-116 MTAP null IC50. The format is cell-based. The essentials:
(§1)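 CellTiter-Glo luminescence, 6-day exposure, RPMI 1640 + 10% FBS. Dosing: 1:3 series (8-9 pts, top 1 or 10 μM) or 1:2 series (22 pts, top 10 or 50 μM), DMSO control. IC50 = 50% of control via curve fit.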

The subject of assay [2] is HCT116 WT cells. The assay is described as follows: HCT116 WT cell proliferation / viability (CellTiter-Glo, 6 days). As to conditions: Homo sapiens, HCT-116, 144 h, HCT116 WT cells, 6 days, CellTiter-Glo; read-out: HCT-116 WT IC50. The format is cell-based. The essentials: as §1
In general terms: In ATP-based viability assays light output follows the ATP content of the culture.

As usually defined, the IC50 is the concentration that inhibits the measured activity by half.

Where only a bound is given, the exact number is not on record here.

Consider `C[C@H](c1ccc(C(F)(F)F)cn1)N(C(=O)c1ccc2nc(N)c3c(c2c1)CO[C@@H]3C)C1CC1` [Example 746, (3R)-4-amino-N-cyclopropyl-3-methyl-N-((1R)-1-(5-(trifluoromethyl)-2-pyridinyl)ethyl)-1,3-dihydrofuro[3,4-c]quinoline-8-carboxamide], for which the figures for the IC50 in assay [1] and in assay [2] were 34 nM and 3460 nM, respectively.
On to `CCOc1ccc(CN(CC)C(=O)c2cc3c4c(c(N)nc3cc2F)COC4)nn1` [Example 747, 4-amino-N-((6-ethoxy-3-pyridazinyl)methyl)-N-ethyl-7-fluoro-1,3-dihydrofuro[3,4-c]quinoline-8-carboxamide], for which the IC50 in assay [1] stood at 161 nM; in assay [2], 5090 nM.
For `CCN(C(=O)c1ccc2nc(N)c3c(c2c1)COC3)[C@H](c1ccc(C(F)(F)F)cn1)C1CC1` [Example 748, 4-amino-N-((S)-cyclopropyl(5-(trifluoromethyl)-2-pyridinyl)methyl)-N-ethyl-1,3-dihydrofuro[3,4-c]quinoline-8-carboxamide], the IC50 in assay [1] turned out to be 5350 nM; in assay [2], 36400 nM.
On the same counts, the results for `CCOc1ccc(CN(C(=O)c2cc3c4c(c(N)nc3cn2)COC4)[C@H](C)c2ncccn2)nn1` [Example 749, 4-amino-N-((6-ethoxy-3-pyridazinyl)methyl)-N-((1R)-1-(2-pyrimidinyl)ethyl)-1,3-dihydrofuro[3,4-c][1,7]naphthyridine-8-carboxamide] are 177 nM and 3340 nM.
On the same counts, the results for `Cn1cc(N(Cc2ccc(C(F)(F)F)nn2)C(=O)c2cc3c4c(c(N)nc3cc2F)COC4)cn1` [Example 750, 4-amino-7-fluoro-N-(1-methyl-1H-pyrazol-4-yl)-N-((6-(trifluoromethyl)-3-pyridazinyl)methyl)-1,3-dihydrofuro[3,4-c]quinoline-8-carboxamide] are 23 nM and 767 nM.
Turning to `Cn1cc(N(Cc2ccc(C(F)(F)F)nn2)C(=O)c2cc3c4c(c(N)nc3cc2Cl)COC4)cn1` [Example 751, 4-amino-7-chloro-N-(1-methyl-1H-pyrazol-4-yl)-N-((6-(trifluoromethyl)-3-pyridazinyl)methyl)-1,3-dihydrofuro[3,4-c]quinoline-8-carboxamide], the IC50 in assay [1] stood at 17 nM; in assay [2], 337 nM.
`CCOc1ccc(CN(CC2CC2)C(=O)c2cc3c4c(c(N)nc3cc2F)COC4)nn1` [Example 752, 4-amino-N-(cyclopropylmethyl)-N-((6-ethoxy-3-pyridazinyl)methyl)-7-fluoro-1,3-dihydrofuro[3,4-c]quinoline-8-carboxamide]: the results for the IC50 in assay [1] and in assay [2] were 33 nM and 771 nM, respectively.
For `CCOc1ccc(CN(CC2CC2)C(=O)c2cc3c4c(c(N)nc3cn2)COC4)nn1` [Example 753, 4-amino-N-(cyclopropylmethyl)-N-((6-ethoxy-3-pyridazinyl)methyl)-1,3-dihydrofuro[3,4-c][1,7]naphthyridine-8-carboxamide], the IC50 in assay [1] is 124 nM; in assay [2], 3890 nM.
Consider `CC(C)N(Cc1ccc(C(F)(F)F)cn1)C(=O)c1ccc2nc(N)c3ccncc3c2c1` [Example 754, 5-amino-N-(2-propanyl)-N-((5-(trifluoromethyl)-2-pyridinyl)methyl)benzo[c][2,6]naphthyridine-9-carboxamide], for which the IC50 in assay [1] turned out to be 24 nM; in assay [2], 370 nM.
The matching figures for `CC(C)N(Cc1ccc(C(F)(F)F)cn1)C(=O)c1ccc2nc(N)c3ncncc3c2c1` [Example 755, 5-amino-N-(2-propanyl)-N-((5-(trifluoromethyl)-2-pyridinyl)methyl)pyrimido[4,5-c]quinoline-9-carboxamide]: 892 nM and 6420 nM.
Turning to `CC(C)N(Cc1ccc(C(F)(F)F)cn1)C(=O)c1cc2c(cn1)nc(N)c1ccncc12` [Example 756, 5-amino-N-(2-propanyl)-N-((5-(trifluoromethyl)-2-pyridinyl)methyl)pyrido[4,3-c][1,7]naphthyridine-9-carboxamide], the IC50 came to 49 nM in assay [1] and 744 nM in assay [2].
`Cn1cc(N(Cc2ccc(C(F)(F)F)cn2)C(=O)c2ccc3nc(N)c4cnn(C)c4c3c2)cn1` [Example 757, 4-amino-1-methyl-N-(1-methyl-1H-pyrazol-4-yl)-N-((5-(trifluoromethyl)-2-pyridinyl)methyl)-1H-pyrazolo[4,3-c]quinoline-8-carboxamide]: the results for the IC50 in assay [1] and in assay [2] were 26 nM and 1320 nM, respectively.
The matching figures for `CCOc1ccc(CN(C(=O)c2ccc3nc(N)c4c(cnn4C)c3c2)[C@H](C)c2ncccn2)nn1` [Example 758, 4-amino-N-((6-ethoxy-3-pyridazinyl)methyl)-3-methyl-N-((1R)-1-(2-pyrimidinyl)ethyl)-3H-pyrazolo[3,4-c]quinoline-8-carboxamide]: 37 nM and 658 nM.
On the same counts, the results for `CCN(C(=O)c1ccc2nc(N)c3c(c2c1)COC3)C(C)(C)c1ccc(C(F)(F)F)cc1` [Example 759, 4-amino-N-ethyl-N-(2-(4-(trifluoromethyl)phenyl)-2-propanyl)-1,3-dihydrofuro[3,4-c]quinoline-8-carboxamide] are 6730 nM and 11800 nM.
The matching figures for `CC(C)N(Cc1ccc(C(F)(F)F)cn1)C(=O)c1cc2c(cn1)nc(N)c1ncncc12` [Example 760, 5-amino-N-(2-propanyl)-N-((5-(trifluoromethyl)-2-pyridinyl)methyl)pyrimido[4,5-c][1,7]naphthyridine-9-carboxamide]: 743 nM and 6100 nM.
Consider `CC[C@H](c1ccc(C(F)(F)F)cn1)N(CC)C(=O)c1cc2c3c(c(N)nc2cn1)COC3` [Example 761, 4-amino-N-ethyl-N-((1R)-1-(5-(trifluoromethyl)-2-pyridinyl)propyl)-1,3-dihydrofuro[3,4-c][1,7]naphthyridine-8-carboxamide], for which the IC50 in assay [1] was determined as 305 nM; in assay [2], 13600 nM.
On to `CCN(C(=O)c1cc2c3c(c(N)nc2cc1F)COC3)[C@H](C)c1ccc(C(F)(F)F)cn1` [Example 762, 4-amino-N-ethyl-7-fluoro-N-((1R)-1-(5-(trifluoromethyl)-2-pyridinyl)ethyl)-1,3-dihydrofuro[3,4-c]quinoline-8-carboxamide], for which the figures for the IC50 in assay [1] and in assay [2] were 26 nM and 621 nM, respectively.
The matching figures for `CCN(C(=O)c1cc2c3c(c(N)nc2cn1)COC3)[C@H](C)c1ccc(C(F)(F)F)nn1` [Example 763, 4-amino-N-ethyl-N-((1R)-1-(6-(trifluoromethyl)-3-pyridazinyl)ethyl)-1,3-dihydrofuro[3,4-c][1,7]naphthyridine-8-carboxamide]: 113 nM and 4810 nM.
As for `CCOc1ccc(CN(CC2CC2)C(=O)c2cc3c(cc2F)nc(N)c2c3cnn2C)nn1` [Example 765, 4-amino-N-(cyclopropylmethyl)-N-((6-ethoxy-3-pyridazinyl)methyl)-7-fluoro-3-methyl-3H-pyrazolo[3,4-c]quinoline-8-carboxamide], the IC50 came to 49 nM in assay [1] and 1980 nM in assay [2].
The matching figures for `CCOc1ccc(CN(CC2CC2)C(=O)c2ccc3nc(N)c4c(c3c2)CO[C@@H]4C)nn1` [Example 766, (3R)-4-amino-N-(cyclopropylmethyl)-N-((6-ethoxy-3-pyridazinyl)methyl)-3-methyl-1,3-dihydrofuro[3,4-c]quinoline-8-carboxamide]: 61 nM and 1910 nM.
The matching figures for `CCN(C(=O)c1cc2c3c(c(N)nc2cn1)COC3)[C@@H](c1ccc(C(F)(F)F)nn1)C1CC1` [Example 767, 4-amino-N-((R)-cyclopropyl(6-(trifluoromethyl)-3-pyridazinyl)methyl)-N-ethyl-1,3-dihydrofuro[3,4-c][1,7]naphthyridine-8-carboxamide]: 2270 nM and above 50000 nM.
The matching figures for `C[C@@H](NC(=O)c1ccc2nc(N)c3c(c2c1)CO[C@@H]3C)c1ccc(C(F)(F)F)cn1` [Example 768, (3R)-4-amino-3-methyl-N-((1R)-1-(5-(trifluoromethyl)-2-pyridinyl)ethyl)-1,3-dihydrofuro[3,4-c]quinoline-8-carboxamide]: 4230 nM and above 50000 nM.
In the case of `Cc1ccc(CN(C)C(=O)c2cc3c(cc2F)nc(N)c2cnn(C)c23)nc1` [Example 769, 4-amino-7-fluoro-N,1-dimethyl-N-((5-methyl-2-pyridinyl)methyl)-1H-pyrazolo[4,3-c]quinoline-8-carboxamide], the results for the IC50 in assay [1] and in assay [2] were 115 nM and 7500 nM, respectively.
Take `CN(Cc1ccc(F)cn1)C(=O)c1cc2c(cc1F)nc(N)c1cnn(C)c12` [Example 770, 4-amino-7-fluoro-N-((5-fluoro-2-pyridinyl)methyl)-N,1-dimethyl-1H-pyrazolo[4,3-c]quinoline-8-carboxamide]: the values for the IC50 in assay [1] and in assay [2] were 253 nM and 19400 nM, respectively.
On the same counts, the results for `CN(Cc1ccc(F)nc1F)C(=O)c1cc2c(cc1F)nc(N)c1cnn(C)c12` [Example 771, 4-amino-N-((2,6-difluoro-3-pyridinyl)methyl)-7-fluoro-N,1-dimethyl-1H-pyrazolo[4,3-c]quinoline-8-carboxamide] are 395 nM and 31100 nM.
On the same counts, the results for `CCN(C(=O)c1cc2c3c(c(N)nc2cn1)COC3)[C@H](C)c1ccc(C(F)F)cn1` [Example 773, 4-amino-N-((1R)-1-(5-(difluoromethyl)-2-pyridinyl)ethyl)-N-ethyl-1,3-dihydrofuro[3,4-c][1,7]naphthyridine-8-carboxamide] are 106 nM and 2630 nM.
